Literature values as cited in paper PMC7599555 (Biomedicines, 2020).

System: TTX-sensitive channels; NaV1.8

For `NC1=N[C@H](O)[C@H]2[C@H]3O[C@]4(O)O[C@@H]([C@@H](O)[C@@]2(N1)[C@@H]4O)[C@]3(O)CO` [TTX, tetrodotoxin], the “inhibition of TTX-sensitive channels and NaV1.8” value is given as “fully inhibits TTX-sensitive channels but not NaV1.8”.
